Test results: ChEMBL document CHEMBL3885861, “Open TG-GATES”

Species on record: Rattus norvegicus
Assay: Open TG-GATES - Regimen: Single
Format: toxicity, organism-based, Sprague-Dawley
Parameters: regimen Single, gender Male, age 6 weeks
Settings: in vivo, po, route gavage; for APTT / Bas / Eos / Fbg / Hb / Ht / Lym / MCH / MCHC / MCV / Mono / Neu / PT / Plat / RBC / Ret / WBC: tissue Blood; for KIDNEY_L / KIDNEY_R / KIDNEY_TOTAL: tissue Kidney; for LIVER: tissue Liver; for A/G / ALP / ALT / AST / BUN / CRE / Ca / Cl / DBIL / GLC / IP / K / LDH / Na / PL / RALB / TBIL / TC / TG / TP / gamma-GTP: tissue Plasma
[1] = 10 mg/kg, 3 h, dose level Middle
[2] = 10 mg/kg, 6 h, dose level Middle
[3] = 10 mg/kg, 9 h, dose level Middle
[4] = 10 mg/kg, 24 h, dose level Middle
[5] = 30 mg/kg, 24 h, dose level High

## Cn1cnc([N+](=O)[O-])c1Sc1ncnc2nc[nH]c12 [AZATHIOPRINE]
[1]
  TERMINAL_BW: 192.8 g
  APTT: 22.9 s
  Bas: 0%
  Eos: 0.8%
  Fbg: 277.6 mg/dL
  Hb: 13.1 g/dL
  Ht: 39.1%
  Lym: 77.8%
  MCH: 21.6 pg
  MCHC: 33.7%
  MCV: 64.2 fL
  Mono: 2.2%
  Neu: 18%
  PT: 15.7 s
  Plat: 117.8 x10_4/uL
  RBC: 609.8 x10_4/ul
  Ret: 9.7%
  WBC: 65 x10_2/uL
  KIDNEY_L: 0.9 g
  KIDNEY_R: 0.9 g
  KIDNEY_TOTAL: 1.7 g
  LIVER: 8.5 g
  A/G: 1.1
  ALP: 1723.6 IU/L
  ALT: 47.6 IU/L
  AST: 78 IU/L
  BUN: 11.4 mg/dL
  CRE: 0.2 mg/dL
  Ca: 10.6 mg/dL
  Cl: 105.6 meq/L
  DBIL: 0.006 mg/dL
  GLC: 189.4 mg/dL
  IP: 9.1 mg/dL
  K: 4.1 meq/L
  LDH: 211.4 IU/L
  Na: 141.8 meq/L
  PL: 133.2 mg/dL
  RALB: 2.9 g/dL
  TBIL: 0.008 mg/dL
  TC: 77 mg/dL
  TG: 57.6 mg/dL
  TP: 5.5 g/dL
  gamma-GTP: 1 IU/L
[2]
  TERMINAL_BW: 189.2 g
  APTT: 21.4 s
  Bas: 0%
  Eos: 1%
  Fbg: 308.4 mg/dL
  Hb: 12.8 g/dL
  Ht: 39%
  Lym: 72%
  MCH: 21.4 pg
  MCHC: 32.9%
  MCV: 65.2 fL
  Mono: 2.8%
  Neu: 22.8%
  PT: 15.6 s
  Plat: 124.6 x10_4/uL
  RBC: 598.6 x10_4/ul
  Ret: 9.2%
  WBC: 73.6 x10_2/uL
  KIDNEY_L: 0.9 g
  KIDNEY_R: 0.9 g
  KIDNEY_TOTAL: 1.8 g
  LIVER: 8.1 g
  A/G: 1.2
  ALP: 1521.2 IU/L
  ALT: 41.8 IU/L
  AST: 70.6 IU/L
  BUN: 8.8 mg/dL
  CRE: 0.1 mg/dL
  Ca: 10.5 mg/dL
  Cl: 107.2 meq/L
  DBIL: 0.004 mg/dL
  GLC: 175.4 mg/dL
  IP: 9.1 mg/dL
  K: 4.6 meq/L
  LDH: 249.2 IU/L
  Na: 140.8 meq/L
  PL: 120.6 mg/dL
  RALB: 2.9 g/dL
  TBIL: 0.01 mg/dL
  TC: 72.6 mg/dL
  TG: 50.4 mg/dL
  TP: 5.4 g/dL
  gamma-GTP: 1 IU/L
[3]
  TERMINAL_BW: 183.9 g
  APTT: 22.4 s
  Bas: 0%
  Eos: 1%
  Fbg: 304.8 mg/dL
  Hb: 12.9 g/dL
  Ht: 38.9%
  Lym: 74.8%
  MCH: 21.8 pg
  MCHC: 33.2%
  MCV: 65.6 fL
  Mono: 2.4%
  Neu: 20.6%
  PT: 15.3 s
  Plat: 114.2 x10_4/uL
  RBC: 592.2 x10_4/ul
  Ret: 9%
  WBC: 83.3 x10_2/uL
  KIDNEY_L: 0.9 g
  KIDNEY_R: 0.9 g
  KIDNEY_TOTAL: 1.7 g
  LIVER: 7.7 g
  A/G: 1.2
  ALP: 1473.8 IU/L
  ALT: 32.4 IU/L
  AST: 64.8 IU/L
  BUN: 10 mg/dL
  CRE: 0.1 mg/dL
  Ca: 10.4 mg/dL
  Cl: 106.6 meq/L
  DBIL: 0 mg/dL
  GLC: 186 mg/dL
  IP: 9.6 mg/dL
  K: 4.2 meq/L
  LDH: 223.2 IU/L
  Na: 141 meq/L
  PL: 145 mg/dL
  RALB: 3.1 g/dL
  TBIL: 0.012 mg/dL
  TC: 85.2 mg/dL
  TG: 47 mg/dL
  TP: 5.6 g/dL
  gamma-GTP: 1 IU/L
[4]
  TERMINAL_BW: 199.9 g
  APTT: 20.9 s
  Bas: 0%
  Eos: 1%
  Fbg: 309 mg/dL
  Hb: 13.4 g/dL
  Ht: 39.3%
  Lym: 81.6%
  MCH: 21.7 pg
  MCHC: 34.1%
  MCV: 63.9 fL
  Mono: 2%
  Neu: 14.4%
  PT: 15.4 s
  Plat: 120.4 x10_4/uL
  RBC: 616.2 x10_4/ul
  Ret: 7.9%
  WBC: 54.7 x10_2/uL
  KIDNEY_L: 0.9 g
  KIDNEY_R: 0.9 g
  KIDNEY_TOTAL: 1.8 g
  LIVER: 9.2 g
  A/G: 1.3
  ALP: 1643.2 IU/L
  ALT: 40.2 IU/L
  AST: 71.4 IU/L
  BUN: 15.4 mg/dL
  CRE: 0.1 mg/dL
  Ca: 10.8 mg/dL
  Cl: 106.8 meq/L
  DBIL: 0.002 mg/dL
  GLC: 190.6 mg/dL
  IP: 7.6 mg/dL
  K: 4.1 meq/L
  LDH: 203.8 IU/L
  Na: 143 meq/L
  PL: 160.2 mg/dL
  RALB: 3.1 g/dL
  TBIL: 0.006 mg/dL
  TC: 90 mg/dL
  TG: 82.6 mg/dL
  TP: 5.6 g/dL
  gamma-GTP: 1 IU/L
30 mg/kg, 3 h, dose level High
  TERMINAL_BW: 191.2 g
  APTT: 22.3 s
  Bas: 0%
  Eos: 1%
  Fbg: 297.8 mg/dL
  Hb: 13.1 g/dL
  Ht: 39.1%
  Lym: 71.8%
  MCH: 21.6 pg
  MCHC: 33.5%
  MCV: 64.6 fL
  Mono: 1.8%
  Neu: 24.6%
  PT: 15.5 s
  Plat: 118.4 x10_4/uL
  RBC: 605.8 x10_4/ul
  Ret: 9.2%
  WBC: 56 x10_2/uL
  KIDNEY_L: 0.9 g
  KIDNEY_R: 0.9 g
  KIDNEY_TOTAL: 1.7 g
  LIVER: 8.5 g
  A/G: 1.2
  ALP: 1649.8 IU/L
  ALT: 41.6 IU/L
  AST: 73.2 IU/L
  BUN: 10.6 mg/dL
  CRE: 0.1 mg/dL
  Ca: 10.3 mg/dL
  Cl: 104.8 meq/L
  DBIL: 0.004 mg/dL
  GLC: 182.8 mg/dL
  IP: 9 mg/dL
  K: 4 meq/L
  LDH: 171.8 IU/L
  Na: 143.2 meq/L
  PL: 138.4 mg/dL
  RALB: 3 g/dL
  TBIL: 0.01 mg/dL
  TC: 80.4 mg/dL
  TG: 47.6 mg/dL
  TP: 5.4 g/dL
  gamma-GTP: 1 IU/L
30 mg/kg, 6 h, dose level High
  TERMINAL_BW: 192.3 g
  APTT: 21 s
  Bas: 0%
  Eos: 0.8%
  Fbg: 311.8 mg/dL
  Hb: 13.2 g/dL
  Ht: 39.6%
  Lym: 71.4%
  MCH: 21.5 pg
  MCHC: 33.3%
  MCV: 64.8 fL
  Mono: 2.2%
  Neu: 25%
  PT: 15.5 s
  Plat: 120.3 x10_4/uL
  RBC: 612.2 x10_4/ul
  Ret: 9%
  WBC: 54.6 x10_2/uL
  KIDNEY_L: 0.9 g
  KIDNEY_R: 0.9 g
  KIDNEY_TOTAL: 1.8 g
  LIVER: 7.9 g
  A/G: 1.1
  ALP: 1635.4 IU/L
  ALT: 36.4 IU/L
  AST: 69.8 IU/L
  BUN: 9.8 mg/dL
  CRE: 0.2 mg/dL
  Ca: 10.6 mg/dL
  Cl: 104.8 meq/L
  DBIL: 0.002 mg/dL
  GLC: 187.4 mg/dL
  IP: 9.1 mg/dL
  K: 4.4 meq/L
  LDH: 221 IU/L
  Na: 141.2 meq/L
  PL: 127.2 mg/dL
  RALB: 2.9 g/dL
  TBIL: 0.008 mg/dL
  TC: 73.4 mg/dL
  TG: 44.6 mg/dL
  TP: 5.5 g/dL
  gamma-GTP: 1 IU/L
30 mg/kg, 9 h, dose level High
  TERMINAL_BW: 184.1 g
  APTT: 22 s
  Bas: 0%
  Eos: 0.8%
  Fbg: 328.4 mg/dL
  Hb: 12.7 g/dL
  Ht: 38.7%
  Lym: 74.4%
  MCH: 21.3 pg
  MCHC: 32.9%
  MCV: 64.9 fL
  Mono: 2.8%
  Neu: 20.6%
  PT: 15.5 s
  Plat: 102.9 x10_4/uL
  RBC: 598 x10_4/ul
  Ret: 9.2%
  WBC: 79 x10_2/uL
  KIDNEY_L: 0.8 g
  KIDNEY_R: 0.9 g
  KIDNEY_TOTAL: 1.7 g
  LIVER: 7.5 g
  A/G: 1.2
  ALP: 1634.6 IU/L
  ALT: 35.4 IU/L
  AST: 77 IU/L
  BUN: 11.4 mg/dL
  CRE: 0.1 mg/dL
  Ca: 10.5 mg/dL
  Cl: 106 meq/L
  DBIL: 0.002 mg/dL
  GLC: 190 mg/dL
  IP: 9.4 mg/dL
  K: 4.5 meq/L
  LDH: 231.8 IU/L
  Na: 140.8 meq/L
  PL: 140.2 mg/dL
  RALB: 2.9 g/dL
  TBIL: 0.01 mg/dL
  TC: 85.8 mg/dL
  TG: 37.2 mg/dL
  TP: 5.4 g/dL
  gamma-GTP: 1.2 IU/L
[5]
  TERMINAL_BW: 199.8 g
  APTT: 19.8 s
  Bas: 0%
  Eos: 0.8%
  Fbg: 345.2 mg/dL
  Hb: 13 g/dL
  Ht: 38.7%
  Lym: 86%
  MCH: 21.7 pg
  MCHC: 33.6%
  MCV: 64.6 fL
  Mono: 1.8%
  Neu: 10.4%
  PT: 15 s
  Plat: 125.5 x10_4/uL
  RBC: 599 x10_4/ul
  Ret: 7.7%
  WBC: 68.5 x10_2/uL
  KIDNEY_L: 0.9 g
  KIDNEY_R: 0.9 g
  KIDNEY_TOTAL: 1.8 g
  LIVER: 9.1 g
  A/G: 1.2
  ALP: 1513.8 IU/L
  ALT: 44.2 IU/L
  AST: 73.6 IU/L
  BUN: 15.4 mg/dL
  CRE: 0.1 mg/dL
  Ca: 11.1 mg/dL
  Cl: 105.2 meq/L
  DBIL: 0 mg/dL
  GLC: 190.8 mg/dL
  IP: 7.6 mg/dL
  K: 4.2 meq/L
  LDH: 210.4 IU/L
  Na: 142 meq/L
  PL: 161.2 mg/dL
  RALB: 3.1 g/dL
  TBIL: 0.014 mg/dL
  TC: 102.6 mg/dL
  TG: 39.4 mg/dL
  TP: 5.7 g/dL
  gamma-GTP: 1.4 IU/L
